Read-outs that look alike come from different tables or passages of the source.
Columns and labels:
[1] = target: T1, human thyroid hormone receptors TRα1 (Homo sapiens, UniProt P10827); experiment: Receptor binding to TRα1 (gel filtration and scintillation proximity assay, labeled T3); conditions: read-out: Ki TRα
T1 construct: made in house; host or cells: Sf9 insect cells (baculovirus)
T1 sequence (P10827 1-410 isoform P10827-2): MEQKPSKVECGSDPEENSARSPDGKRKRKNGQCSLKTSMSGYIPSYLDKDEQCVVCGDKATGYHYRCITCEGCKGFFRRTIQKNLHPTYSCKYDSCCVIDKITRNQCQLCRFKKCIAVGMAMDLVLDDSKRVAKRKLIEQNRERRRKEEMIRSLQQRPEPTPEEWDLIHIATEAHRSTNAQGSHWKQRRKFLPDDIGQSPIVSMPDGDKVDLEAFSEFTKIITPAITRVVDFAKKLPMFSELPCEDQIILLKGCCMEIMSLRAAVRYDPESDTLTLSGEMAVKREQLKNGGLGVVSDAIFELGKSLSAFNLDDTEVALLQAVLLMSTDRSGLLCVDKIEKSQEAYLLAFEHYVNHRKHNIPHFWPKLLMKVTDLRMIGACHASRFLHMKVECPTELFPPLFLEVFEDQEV
T1 sequence (P19793 1-462 partner): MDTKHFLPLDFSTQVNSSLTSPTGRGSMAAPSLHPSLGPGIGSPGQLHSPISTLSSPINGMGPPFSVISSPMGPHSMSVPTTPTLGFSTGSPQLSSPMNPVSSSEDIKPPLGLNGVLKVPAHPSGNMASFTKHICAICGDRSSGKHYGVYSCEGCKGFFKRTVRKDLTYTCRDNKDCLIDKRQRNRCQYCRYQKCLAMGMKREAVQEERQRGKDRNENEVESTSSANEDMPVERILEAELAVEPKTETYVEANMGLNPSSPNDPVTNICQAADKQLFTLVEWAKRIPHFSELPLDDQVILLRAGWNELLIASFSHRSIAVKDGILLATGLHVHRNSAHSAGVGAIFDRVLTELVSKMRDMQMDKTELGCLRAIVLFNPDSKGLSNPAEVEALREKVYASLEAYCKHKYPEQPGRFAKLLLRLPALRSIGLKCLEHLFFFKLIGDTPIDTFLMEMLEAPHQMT

[2] = target: T2, human thyroid hormone receptors TRβ1 (Homo sapiens, UniProt P10828); experiment: Receptor binding to TRβ1 (gel filtration and scintillation proximity assay, labeled T3); conditions: read-out: Ki TRβ
T2 construct: made in house; host or cells: Sf9 insect cells (baculovirus)
T2 sequence (P10828 1-461): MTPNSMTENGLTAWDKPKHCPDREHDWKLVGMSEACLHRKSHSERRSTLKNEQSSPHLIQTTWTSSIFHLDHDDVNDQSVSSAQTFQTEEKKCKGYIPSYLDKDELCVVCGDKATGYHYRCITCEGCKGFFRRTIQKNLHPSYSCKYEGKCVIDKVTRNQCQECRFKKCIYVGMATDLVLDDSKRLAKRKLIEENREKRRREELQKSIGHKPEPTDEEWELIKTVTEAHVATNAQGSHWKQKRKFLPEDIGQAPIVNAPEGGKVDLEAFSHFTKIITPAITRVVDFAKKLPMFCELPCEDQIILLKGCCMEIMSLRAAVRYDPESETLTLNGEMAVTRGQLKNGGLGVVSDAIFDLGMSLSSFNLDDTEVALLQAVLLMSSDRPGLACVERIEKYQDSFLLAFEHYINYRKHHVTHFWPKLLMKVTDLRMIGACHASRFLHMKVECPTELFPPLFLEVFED
T2 sequence (P19793 1-462 partner): T1 sequence (P19793 1-462 partner)

[3] = tested on: plasma cholesterol; experiment: Cholesterol lowering in hypercholesterolemic rats; type: in vivo; conditions: for change in vivo at 0.2 mg/kg/day: Rattus norvegicus, read-out: % Cholesterol Lowering
[4] = Continuous infusion study in rats on a cholesterol-containing diet; type: in vivo; conditions: continuous infusion 1 mg/kg/day; for cholesterol lowering effects: day 7 and day 14; for cardiovascular parameters (heart rate, LV dP/dt, systolic and diastolic blood pressure): day 7 or day 14
Procedure: Screening for thyromimetic activity was performed in normal rats maintained on a cholesterol-containing diet. Compounds were administered by continuous infusion using an osmotic pump at 1 mg/kg/day.

[5] = Prodrug activation in rat liver microsomes; type: in vitro ADME
Excerpt: (§1) The purpose of these studies was to determine the kinetics of activation of prodrugs of thyromimetics in microsomal preparations. Microsomes contain the P450 enzyme that is required for the activation of many of the prodrugs prepared. The Km, Vmax, and intrinsic clearance values determined are measures of prodrug affinity for the microsomal enzymes, the rate at which the prodrug is activated, and the catalytic efficiency with which the prodrug is activated, respectively.
(§2) Methods: Activation of prodrugs by dexamethasone treated rat hepatocyte microsomes. Microsomes were isolated by standard differential centrifugation methods from dexamethasone-treated rats. The treatment is to increase cytochrome P450-3A (CYP3A4) activity. Induction of CYP3A4 was confirmed by an increase in testosterone hydroxylation.
(§3) Various concentrations of HepDirect™ Compound 7 were incubated with rat hepatocytes microsomes. Compound 7 formation was analyzed by HPLC using UV-Vis detection. Kinetic parameters (Vmax and Km) were calculated from the transformed data and the intrinsic clearance calculated from the kinetic parameters.

[6] = tested on: CYP3A (cytochrome P450-3A (CYP3A4)); experiment: Prodrug activation in rat liver microsomes; type: in vitro ADME; conditions: liver microsomes from dexamethasone-treated rats; dexamethasone treated rat microsomes, formation of Compound 7
Excerpt: as §1, §2, §3

[7] = po, delivered p.o. (0.2 mg/kg/d), percentage change from pre-dose cholesterol
[8] = ip, delivered i.p (0.2 mg/kg/d), percentage change from pre-dose cholesterol

Compound | Ki ([1]; SPA data) [nM] | Ki ([2]; SPA data) [nM] | change in vivo at 0.2 mg/kg/day [3, 7] [%] | change in vivo at 0.2 mg/kg/day [3, 8] [%] | other results
COP(=O)(O)COc1cc(C)c(Cc2ccc(O)c(C(C)C)c2)c(C)c1 [Compound 69, [3,5-dimethyl-4-(4′-hydroxy-3′-iso-propylbenzyl)phenoxy]methylphosphonic acid monomethyl ester] | 13.5 | 3 |  |  | change in vivo at 0.2 mg/kg/day ([3]; po): -41.9%; cholesterol lowering effects [4]: demonstrated cholesterol lowering effects; cardiovascular parameters (heart rate, LV dP/dt, systolic and diastolic blood pressure) [4]: no changes in any of the cardiovascular parameters
Cc1cc(OCP(C)(=O)O)cc(C)c1Cc1ccc(O)c(C(C)C)c1 [Compound 70, [3,5-dimethyl-4-(4′-hydroxy-3′-iso-propylbenzyl)phenoxymethyl]methylphosphinic acid] | 183 | 5.4 | -32.8 |  | cholesterol lowering effects [4]: demonstrated cholesterol lowering effects; cardiovascular parameters (heart rate, LV dP/dt, systolic and diastolic blood pressure) [4]: no changes in any of the cardiovascular parameters
Cc1cc(OC[P@@]2(=O)OCC[C@@H](c3cccc(F)c3)O2)cc(C)c1Cc1ccc(O)c(C(C)C)c1 [Compound 13-3-cis] | 2840 | 3430 |  |  | Vmax ([5]; dexamethasone treated rat microsomes, formation of Compound 7): 2118 pmol/min/mg; microsomal CLint ([5]; rat, liver microsomes from dexamethasone-treated rats, intrinsic clearance calculated from the kinetic parameters): 46 µL/min/mg; Km [6]: 46 µM
CCOP(=O)(O)COc1cc(C)c(Cc2ccc(O)c(C(C)C)c2)c(C)c1 [Compound 69-1, [3,5-dimethyl-4-(4′-hydroxy-3′-iso-propylbenzyl)phenoxy]methylphosphonic acid monoethyl ester] |  |  |  |  | cholesterol lowering effects [4]: demonstrated cholesterol lowering effects; cardiovascular parameters (heart rate, LV dP/dt, systolic and diastolic blood pressure) [4]: no changes in any of the cardiovascular parameters
Cc1cc(OCP(=O)(O)O)cc(C)c1Oc1ccc(O)c(C(C)C)c1 [Compound 31, [3,5-dimethyl-4-(4′-hydroxy-3′-iso-propylphenoxy)phenoxy]methylphosphonic acid] | 540 | 73 |  | -21.1 | 
Cc1cc(S(=O)(=O)CP(=O)(O)O)cc(C)c1Cc1ccc(O)c(C(C)C)c1 [Compound 52, [3,5-dimethyl-4-(4′-Hydroxy-3′-iso-propylbenzyl)benzenesulfonyl]methylphosphonic acid] | > 2000 | 48 |  | -18.8 | 
Cc1cc(OCP(=O)(O)O)c(I)c(C)c1Cc1ccc(O)c(C(C)C)c1 [Compound 46, [3,5-Dimethyl-4-(4′-hydroxy-3′-iso-propylbenzyl)-2-iodophenoxy]methylphosphonic Acid] | 20 | 2 | -23.8 | -29.6 | 
Cc1cc(OCP(=O)(O)O)cc(C)c1Cc1ccc(O)c(-c2ccccc2)c1 [Compound 7-1, [3,5-dimethyl-4-(4′-hydroxy-3′-phenylbenzyl)phenoxy]methylphosphonic acid] |  | 106 | -12.2 |  | Ki [1]: 1170 nM
CC(C)c1cc(Cc2c(Cl)cc(OCP(=O)(O)O)cc2Cl)cc(Br)c1O [Compound 7-14, [3,5-dichloro-4-(5′-bromo-4′-hydroxy-3′-iso-propylbenzyl)phenoxy]methylphosphonic acid] | 429 | 52 |  | -32.9 | 
Cc1cc(OC(F)(F)P(=O)(O)O)cc(C)c1Cc1ccc(O)c(C(C)C)c1 [Compound 7-6, difluoro-[3,5-dimethyl-4-(4′-hydroxy-3′-iso-propylbenzyl)phenoxy]methylphosphonic acid] | 98 | 7.6 |  | -13.5 | 
Cc1cc(/C=C/P(=O)(O)O)cc(C)c1Oc1ccc(O)c(C(C)C)c1 [Compound 28, trans-2-[3,5-dimethyl-4-(4′-hydroxy-3′-iso-propylphenoxy)phenyl]vinylphosphonic acid] | 375 | 14 |  | -20.5 | 
Cc1cc(OCP(=O)(O)O)cc(C)c1Cc1ccc(O)c(C2CC2)c1 [Compound 48, [4-(3′-cyclopropyl-4′-hydroxybenzyl)-3,5-dimethylphenoxy]methylphosphonic acid] | 129 | 9 |  | -23.4 | 
Cc1cc(CCP(=O)(O)O)cc(C)c1Cc1ccc(O)c(Cc2ccccc2)c1 [Compound 42, 2-[3,5-dimethyl-4-[3′-benzyl-4′-hydroxy-benzyl]phenyl]-ethylphosphonic acid] | 794 | 16.2 |  | -28.8 | 
CCC(C)c1cc(Cc2c(C)cc(OCP(=O)(O)O)cc2C)ccc1O (centres unmarked) [Compound 7-3, [3,5-dimethyl-4-(3′-sec-butyl-4′-hydroxybenzyl)phenoxy]methylphosphonic acid] | 31 | 6.6 | -36.5 | -45.4 | 
CC(C)c1cc(Oc2c(I)cc(OCP(=O)(O)O)cc2I)ccc1O [Compound 8, [3,5-diiodo-4-(4′-hydroxy-3′-iso-propylphenoxy)phenoxy]methylphosphonic acid] |  |  | -20.6 | -24.3 | Ki [1]: 3.74 nM; Ki [2]: 0.97 nM
[3,5-dimethyl-4-(4′-Hydroxy-3′-iso-propyl-phenyl)methoxymethyl]phenoxy]methylphosphonic acid [Compound 33] | 267 | 16.7 |  |  | % Cholesterol Lowering ([3]; delivered i.p (0.2 mg/kg/d), percentage change from pre-dose cholesterol): −32.5%
Cc1cc(OCP(=O)(O)O)c(C)c(C)c1Cc1ccc(O)c(C(C)C)c1 [Compound 61, [4-(4′-hydroxy-3′-isopropylbenzyl)-2,3,5-trimethylphenoxymethyl]phosphonic acid] | 42.7 | 1.4 | -33.7 |  | 
Cc1cc(/C=C/P(=O)(O)O)cc(C)c1Cc1ccc(O)c(C(C)C)c1 [Compound 24-2, trans-2-[3,5-dimethyl-4-(4′-hydroxy-3′-iso-propylbenzyl)phenyl]vinylphosphonic acid] | > 2000 | 24 |  | -20.5 | 
COP(=O)(O)Cc1cc(Br)c(Oc2ccc(O)c(C(C)C)c2)c(Br)c1 [Compound 69-2, [3,5-dibromo-4-(4′-hydroxy-3′-isopropylphenoxy)benzyl]phosphonic Acid Monomethyl Ester] | 2.8 | 0.8 |  |  | change in vivo at 0.2 mg/kg/day ([3]; po): -49.9%
CCC(C)c1cc(Cc2c(C)cc(CCP(=O)(O)O)cc2C)ccc1O (centres unmarked) [Compound 24-3, 2-[4-(3′-sec-butyl-4′-hydroxy-benzyl)-3,5-dimethyl-phenyl]-ethylphosphonic acid] | 113 | 2.87 |  | -48.6 | 

— US20090028925A1, “Novel Phosphinic Acid-Containing Thyromimetics” (priority 2005, published 2009)
